Laboratory results taken from paper PMC10716264 (Frontiers in Medicine, 2023).
Read-outs that look alike come from different tables or passages of the source.

Experiments:
SARS-CoV-2 3CLpro = SARS-CoV-2 3CLpro (Severe acute respiratory syndrome coronavirus 2, UniProt P0DTD1); assay: biochemical
[1] = molecular target: SARS-CoV-2 RdRp complex (nsp12-nsp7-nsp8) (Severe acute respiratory syndrome coronavirus 2, UniProt P0DTD1); assay type: biochemical
[2] = system: influenza A/California/07/09 (H1N1) strain; assay: microbe, parasite or virus in culture; assay type: cell-based; conditions: read-out: EC50 (effective 50% concentration), MDCK cells
[3] = system: SARS-CoV-2 (2019-nCoV-WIV04); assay: microbe, parasite or virus in culture; assay type: cell-based; conditions: read-out: EC50 against SARS-CoV-2 virus
COVID-19 = system: COVID-19; set-up: method as in PMID 32568613; conditions: unvaccinated symptomatic adults, Nirmatrelvir-based therapy; cited from earlier work
[4] = set-up: method as in earlier work; conditions: co-administration with ritonavir; cited from earlier work
[5] = Severe acute respiratory syndrome coronavirus 2, Vero C1008, 24 h

O=C(OC[C@H]1O[C@@H](OC(=O)c2cc(O)c(O)c(O)c2)[C@H](OC(=O)c2cc(O)c(O)c(OC(=O)c3cc(O)c(O)c(O)c3)c2)[C@@H](OC(=O)c2cc(O)c(O)c(OC(=O)c3cc(O)c(O)c(O)c3)c2)[C@@H]1OC(=O)c1cc(O)c(O)c(OC(=O)c2cc(O)c(O)c(O)c2)c1)c1cc(O)c(O)c(O)c1 [R-8, 2,3,4-bis-O-galloyl-1,6-di-O-galloyl-β-D-glucose]
IC50 (SARS-CoV-2 3CLpro; Rutan and components (Figure 4)): 1.34 µM

O=c1c(O)c(-c2cc(O)c(O)c(O)c2)oc2cc(O)cc(O)c12 [Myricetin]
formation of the RdRp-RNA complex ([1]; 250 μM): completely blocked | inhibition of primer elongation ([1]; gel assay, compared with Rutan): showed inhibitory activity in higher concentrations

NC(=O)c1nc(F)c[nH]c1=O [Favipiravir]
EC50 [2]: 24 µM

CCC(CC)COC(=O)[C@H](C)N[P@](=O)(OC[C@H]1O[C@@](C#N)(c2ccc3c(N)ncnn23)[C@H](O)[C@@H]1O)Oc1ccccc1 [Remdesivir]
EC50 [3, 5]: 2 µM

2,4-bis-O-galloyl-1,3,6-tri-O-galloyl-β-D-glucose [R-7]
IC50 (SARS-CoV-2 3CLpro): 9.84 µM | EC50 [3]: 17.5 µM

CC(C)(C)[C@H](NC(=O)C(F)(F)F)C(=O)N1C[C@H]2[C@@H]([C@H]1C(=O)N[C@H](C#N)C[C@@H]1CCNC1=O)C2(C)C [Nirmatrelvir]
reduction of the risk of severe complications following COVID-19 infection (COVID-19): 89%

Cc1cccc(C)c1OCC(=O)N[C@@H](Cc1ccccc1)[C@@H](O)C[C@H](Cc1ccccc1)NC(=O)[C@H](C(C)C)N1CCCNC1=O [Lopinavir]
increase of area under the plasma concentration-time curve [4]: more than 100 times

O=C(OC[C@H]1O[C@@H](OC(=O)c2cc(O)c(O)c(O)c2)[C@H](OC(=O)c2cc(O)c(O)c(O)c2)[C@@H](OC(=O)c2cc(O)c(O)c(O)c2)[C@@H]1OC(=O)c1cc(O)c(O)c(O)c1)c1cc(O)c(O)c(O)c1 [R-5, 1,2,3,4,6-penta-O-galloyl-β-D-glucose]
EC50 [3, 5]: 7.49 µM

O=C(OC[C@H]1O[C@@H](OC(=O)c2cc(O)c(O)c(O)c2)[C@H](OC(=O)c2cc(O)c(O)c(O)c2)[C@@H](OC(=O)c2cc(O)c(O)c(OC(=O)c3cc(O)c(O)c(O)c3)c2)[C@@H]1OC(=O)c1cc(O)c(O)c(O)c1)c1cc(O)c(O)c(O)c1 [R-6, 3-bis-O-galloyl-1,2,4,6-tetra-O-galloyl-β-D-glucose]
IC50 (SARS-CoV-2 3CLpro): 9.92 µM | EC50 ([3]; Severe acute respiratory syndrome coronavirus 2, Vero C1008, Vero E6 cells, MOI 0.01, 24 h post-infection, viral copies by qRT-PCR): 5.95 µM
